Consider 24 compounds from patent US20030065176A1, “Factor xa inhibitors with aryl-amidines and derivatives, and prodrugs thereof” (priority 2000, published 2003).

Counter-ions that a name gives are not always drawn. Like-named read-outs stand apart in the source and are kept apart here.

The target in data set [1] is human thrombin (Homo sapiens, UniProt P00734). The experiment in a line: Thrombin inhibition assay (selectivity against thrombin). The settings on record: for Selectivity (thrombin/FXa): ratio of Ki values; for Ki: read-out: Inhibition ability against thrombin Ki. The format is biochemical. The protocol: The FXa inhibiting selectivity of the compound according to the present invention to thrombin is measured as follows. The inhibition effect of the compound of formula 1 to thrombin is measured in Ki value by practicing the same method as the above measuring method of FXa inhibiting activity, and the rate of thrombin/FXa is obtained. At this time, the experimental method of thrombin is the same as that of FXa, except that Chromozyme TH (Tosyl-Gly-Pro-Arg-nitroanilide acetate) is used as the substrate.
Inhibiting ability of a compound according to the present invention against thrombin activity was measured as follows.
In 1.5 mL cuvette, 0.1M tris buffer solution (pH 7.8) comprising 150 mM NaCl, and 0.1% PEG 8000 (molecular weight 8000) was placed by 1160 uL. Chromozyme X was dissolved in dimethylsulfoxide (DMSO) to be 0.1 mM, and diluted with the above buffer solution to be 0.1 mM to prepare the substrate solution. 225 uL of 0.1 mM substrate solution as prepared above was added to cuvette. The compound of the present invention was dissolved in DMSO to be 10 mM, and diluted with the above buffer solution to be 0.1 mM, 0.01 mM and 0.001 mM, respectively, to prepare an inhibitor solution. The inhibitor solution was taken in an amount from 0 to 20 uL, and supplemented with tris buffer solution up to 20 uL of total volume of the solution to add to the cuvette.
15 uL of human thrombin, which was dissolved in the above tris buffer solution to be 0.1 mg/mL, was added to the cuvette having the reaction solution at room temperature to begin enzyme hydrolysis. The amount of para-nitroanilide produced for 2 minutes after adding enzyme was monitored about variation of absorbency at 381 nm to depict continuous spectrum of reaction time to absorbency. The above experiment was repeated for various concentrations of inhibitor to obtain consecutive spectrum.
The initial velocity Vi was calculated from gradient within 30 sec of the reaction time in each spectrum. A graph was depicted for a reciprocal of the initial velocity to inhibitor concentration (1/Vi). A linear equation corresponding to points on the graph was obtained. Thereafter, Ki may be calculated by using enzyme reaction equation from x intercept.

For data set [2] the following is noted: background art; cited from earlier work.
The target of data set [3] is T1, trypsin (UniProt P00760).
T1 construct: other: A1: cyclopropyl scaffold; other: A2: pyrrole scaffold; other: A3: bicyclic scaffold; other: A4: cyanophenylalanine scaffold
T1 sequence (P00760 1-246): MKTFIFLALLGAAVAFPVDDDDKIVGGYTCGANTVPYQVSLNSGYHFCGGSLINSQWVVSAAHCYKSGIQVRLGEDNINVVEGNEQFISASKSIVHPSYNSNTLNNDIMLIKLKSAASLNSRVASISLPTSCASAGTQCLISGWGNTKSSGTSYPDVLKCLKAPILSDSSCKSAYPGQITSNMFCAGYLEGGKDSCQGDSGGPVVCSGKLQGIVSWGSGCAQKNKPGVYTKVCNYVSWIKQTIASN
The data set can be described thus: Trypsin inhibition assay (selectivity against trypsin). The settings on record: A1: cyclopropyl scaffold; read-out: Inhibition ability against trypsin Ki. The format is biochemical. The procedure: (§1) The FXa inhibition selectivity of the compound according to the present invention to trypsin is measured as follows. The inhibition effect of the compound of formula 1 to trypsin is measured in Ki value by practicing the same method as the above measuring method of FXa inhibiting activity, and the rate of trypsin/FXa is obtained. At this time, the experimental method of thrombin is the same as that of FXa, except that N-benzoyl-Val-Gly-Arg-p-nitroanilide hydrochloride is used as the substrate.
(§2) Inhibition activity of a compound according to the present invention was measured by performing the experiment as explained above concerning FXa.
(§3) 20 uM solution of N-benzoyl-Val-Gly-Arg-p-nitroanilide hydrochloride was used as a substrate. An inhibitor solution with various concentrations in the range of 0 to 120 uM was used. Trypsin was dissolved in 0.1N HCl, and supplemented with the above tris buffer solution to be 45 ug/mL. Thereafter, 40 uL of the trypsin solution was used. The remaining procedure and the used amounts of materials (for example, […] of total volume of the reaction solution) and the like were the same as those of the experiment for thrombin. Also, Km was decided in the same method as used in Ki calculation.

For data set [4], the system named is trypsin. The description is as above. The format is biochemical. Conditions: A1: cyclopropyl scaffold; ratio of Ki values. The protocol: as §1, §2, §3
Data set [5] has as its target FXa (Homo sapiens, UniProt P00742). The settings on record: background art; cited from earlier work.
[6] abbreviates: A4: cyanophenylalanine scaffold.

FXa, sequence (P00742 235-488 limits assumed): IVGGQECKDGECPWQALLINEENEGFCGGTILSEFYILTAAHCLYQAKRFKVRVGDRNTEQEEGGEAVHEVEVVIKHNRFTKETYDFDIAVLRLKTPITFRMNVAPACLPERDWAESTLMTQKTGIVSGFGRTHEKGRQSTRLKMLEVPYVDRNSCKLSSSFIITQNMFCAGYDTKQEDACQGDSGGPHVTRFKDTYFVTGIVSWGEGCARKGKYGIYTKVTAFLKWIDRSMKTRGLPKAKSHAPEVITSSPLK
FXa, sequence (P00742 41-179 limits assumed): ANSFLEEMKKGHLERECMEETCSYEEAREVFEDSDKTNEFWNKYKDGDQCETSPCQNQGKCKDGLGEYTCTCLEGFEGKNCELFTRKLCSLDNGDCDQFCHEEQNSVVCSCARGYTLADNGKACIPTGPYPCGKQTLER

Take `CCOC(=O)c1cn(Cc2cccc(C(=N)N)c2)cc1-c1cccc(-c2ccccc2)c1.O=C(O)C(F)(F)F` [Compound No. A2-51, Ethyl 4-(3-biphenyl)-1-(3-aminoiminomethylbenzyl)-pyrrole-3-carboxylate trifluoroacetic acid salt]: the “Selectivity (thrombin/FXa)” value in data set [1] (A2: pyrrole scaffold) is given as 0.08. The term Ki denotes the equilibrium dissociation constant of an inhibitor or competing ligand from its target. For the compound “4-(2-cyanophenyl)-phenyl N-carboxymethyl)-3-(3-aminoiminomethylphenyl)alanine amide trifluoroacetic acid salt [Compound No. A4-10]”, in data set [1] (setting [6]), the “Selectivity (thrombin/FXa)” value is recorded as 14 and the Ki stood at 1.7 µM. As to `N=C(N)c1ccc(-c2ccccc2NC(=O)Nc2cccc(C(=N)N)c2)cc1.O=C(O)C(F)(F)F.O=C(O)C(F)(F)F` [Compound No. A3-8], the “Selectivity (thrombin/FXa)” value in data set [1] (A3: bicyclic scaffold) was determined as 1.6. Consider `CC(=N)N1CCC(Oc2ccc(N(Cc3ccc4ccc(C(=N)N)cc4c3)S(=O)(=O)CC(=O)O)cc2)CC1` [YM-60828], for which the oral absorption result in data set [2] is on record as “capable of being absorbed orally”.

For the compound `N=C(N)c1ccc(Cn2cc(Cc3cccc(C(=N)N)c3)c(C(=O)N3CCOCC3)c2)cc1` [Compound No. A2-40, 4-(3-Aminoiminomethylbenzyl)-1-(4-aminoiminomethylbenzyl)-pyrrole-3-carboxylic acid morphorline amide bis trifluoroacetic acid salt], in data set [1] (A2: pyrrole scaffold), the “Selectivity (thrombin/FXa)” value is listed as 14. Take `Cc1ccc(S(N)(=O)=O)c(-c2ccc(NC(=O)[C@@H]3C[C@@H]3c3cccc(C(=N)N)c3)cc2)c1.O=C(O)C(F)(F)F` (relative stereo) [Compound No. A1-4, 4-(2-aminosulfonyl-5-methyl-phenyl)-phenyl cis-2-(3-aminoiminomethylphenyl)-cyclopropane-1-carboxamide mono trfluoroacetic acid salt]: in data set [1] (A1: cyclopropyl scaffold), the “Selectivity (thrombin/FXa)” value turned out to be 127 and the Ki worked out at 0.38 µM. For “4-(4-Aminoiminomethylbenzyl)-1-(3-aminoiminomethylhydroxy-benzyl)-pyrrole-3-carboxylic acid bis trifluoroacetic acid salt [Compound No. A2-30]”, the “Selectivity (thrombin/FXa)” value in data set [1] (A2: pyrrole scaffold) is on record as 190.

As for `N#Cc1ccccc1-c1ccc(NC(=O)[C@@H]2C[C@@H]2c2cccc(C(=N)N)c2)cc1.O=C(O)C(F)(F)F` (relative stereo) [Compound No. A1-7, 4-(2-cyanophenyl)-phenyl [1,2]-cis, [2,3]-cis-2-(3-aminoiminomethylphenyl)cyclopropane-1-carboxamide mono trifluoroacetic acid salt], in data set [1] (A1: cyclopropyl scaffold), the “Selectivity (thrombin/FXa)” value was 400 and the Ki was determined as 2 µM. Besides, the Ki in data set [3] came out at 0.2 µM. Also, in data set [4], the “Selectivity (trypsin/FXa)” value was 40. For `N=C(N)c1cccc(C2=NOC(Cc3nn[nH]n3)(C(=O)Nc3ccc(-c4ccccc4S(N)(=O)=O)cc3)C2)c1` (stereo not drawn) [SK-549], in data set [5], the “effect as a Fxa inhibitor” value is “excellent effect as a Fxa inhibitor”; the “selectivity against thrombin, trypsin and the like enzymes” value was “excellent selectivity against thrombin, trypsin and the like enzymes”. On to `CCOC(=O)c1cn(Cc2ccc(C(=N)N)cc2)cc1Cc1ccc(C(=N)N)cc1.O=C(O)C(F)(F)F.O=C(O)C(F)(F)F` [Compound No. A2-42], for which the “Selectivity (thrombin/FXa)” value in data set [1] (A2: pyrrole scaffold) is listed as 4.7.

Turning to `CCOC(=O)c1cn(Cc2cccc(C(=N)N)c2)cc1-c1ccc(-c2ccccc2)cc1.O=C(O)C(F)(F)F` [Compound No. A2-52, Ethyl 4-(4-biphenyl)-1-(3-aminoiminomethylbenzyl)-pyrrole-3-carboxylate trifluoroacetic acid salt], in data set [1] (A2: pyrrole scaffold), the “Selectivity (thrombin/FXa)” value came to 2.6. Turning to `CCOC(=O)c1cn(Cc2ccc(-c3ccccc3)cc2)cc1Cc1cccc(C(=N)N)c1.O=C(O)C(F)(F)F` [Compound No. A2-19, Ethyl 4-(3-aminoiminomethylbenzyl)-1-(4-biphenylmethyl)-pyrrole-3-carboxylate trifluoroacetic acid salt], the “Selectivity (thrombin/FXa)” value in data set [1] (A2: pyrrole scaffold) is 0.4. Consider `N=C(N)c1ccc(O)c(CN2CC[C@H](NS(=O)(=O)c3ccc(-c4cccnc4)s3)C2=O)c1` [RPR-130737], for which, in data set [5], the “effect as a Fxa inhibitor” value is “excellent effect as a Fxa inhibitor”; the “selectivity against thrombin, trypsin and the like enzymes” value is “excellent selectivity against thrombin, trypsin and the like enzymes”.

Regarding `CC(=N)N1CC[C@H](Oc2ccc(C(Cc3ccc4ccc(C(=N)N)cc4c3)C(=O)O)cc2)C1` (stereo partly drawn) [DX9065a], the oral absorption entry in data set [2] is on record as “capable of being absorbed orally”. `CCOC(=O)c1cn(Cc2ccccc2)cc1Cc1ccc(C(=N)N)cc1.O=C(O)C(F)(F)F` [Compound No. A2-1, Ethyl 4-(4-aminoiminomethylbenzyl)-benzyl-pyrrole-3-carboxylate trifluoroacetic acid salt]: the “Selectivity (thrombin/FXa)” value in data set [1] (A2: pyrrole scaffold) is 0.1. On to `CN1CCN=C1c1cccc(Oc2nc(Oc3cc(C(=N)N)ccc3O)c(F)c(N(C)CC(=O)O)c2F)c1` [ZK-80719], for which, in data set [2], the oral absorption result is reported as “capable of being absorbed orally”. On to `N=C(N)c1ccc(NC(=O)Nc2ccccc2-c2cccc(C(=N)N)c2)cc1.O=C(O)C(F)(F)F.O=C(O)C(F)(F)F` [Compound No. A3-10], for which the “Selectivity (thrombin/FXa)” value in data set [1] (A3: bicyclic scaffold) amounted to 0.82. With “Ethyl 4-(3-aminoiminomethylbenzyl)-1-aminoiminomethylbenzyl)-pyrrole-3-carboxylate bis trifluoroacetic acid salt [Compound No. A2-37]”, the “Selectivity (thrombin/FXa)” value in data set [1] (A2: pyrrole scaffold) came to 7.0. Turning to `Cc1ccc(S(N)(=O)=O)c(-c2ccc(NC(=O)[C@@H]3C[C@H]3c3cccc(C(=N)N)c3)cc2)c1.O=C(O)C(F)(F)F` (relative stereo) [Compound No. A1-3, 4-(2-aminosulfonyl-5-methyl-phenyl)-phenyl trans 2-(3-aminoiminomethylphenyl-cyclopropane-1-carboxamidemonotrifluoroacetic acid salt], the Ki in data set [1] (A1: cyclopropyl scaffold) amounted to 0.52 µM; in data set [3] it was 0.12 µM. On to `CC(C)c1nc2c(C(=O)O)cc(NC3CCN(C(=N)N)CC3)cc2n1Cc1ccc2ccc(C(=N)N)cc2c1` [ZK-807369], for which the oral absorption result in data set [2] is reported as “capable of being absorbed orally”. On to `N=C(N)c1cccc(NC(=O)Nc2ccccc2-c2cccc(C(=N)N)c2)c1.O=C(O)C(F)(F)F.O=C(O)C(F)(F)F` [Compound No. A3-11], for which the “Selectivity (thrombin/FXa)” value in data set [1] (A3: bicyclic scaffold) was determined as 6.4.

For the compound `N=C(N)c1ccc(NC(=O)Nc2ccccc2-c2ccc(C(=N)N)cc2)cc1.O=C(O)C(F)(F)F.O=C(O)C(F)(F)F` [Compound No. A3-9], in data set [1] (A3: bicyclic scaffold), the “Selectivity (thrombin/FXa)” value stood at 0.04.

In the case of `N=C(N)c1cccc(-c2ccccc2NS(=O)(=O)Cc2ccccc2)c1.O=C(O)C(F)(F)F` [Compound No. A3-21], the “Selectivity (thrombin/FXa)” value in data set [1] (A3: bicyclic scaffold) is on record as 0.73. As to `Cc1ccc(S(N)(=O)=O)c(-c2ccc(NC(=O)[C@@H]3C[C@H]3c3cccc(C(=N)N)c3)cc2)c1.O=C(O)C(F)(F)F` (relative stereo) [Compound No. A1-3], the “Selectivity (thrombin/FXa)” value in data set [1] (A1: cyclopropyl scaffold) was 5. For the same compound, the “Selectivity (trypsin/FXa)” value in data set [4] stood at 0.94.
